{"source": "patent US7041652B1", "about": "“Ascorbate-isoquercetin compositions” (Merck Patent GmbH, priority 1999, dated 2006)", "key": {"[1]": {"details": "earlier pharmacokinetic studies (Hollman and Katan, 1997; Hollman, 1997); cited from earlier work"}, "[2]": {"test": "intestinal absorption of isoquercetin", "type": "in vivo", "details": "human intestinal tract; compared with rutin and quercetin aglycone", "source_text": "Therefore, the increased effectivity of ascorbate protectioin may be caused by the fact that isoquercetin contains a glucose molecule. This glucose molecule seems to be the reason why isoquercetin is able to use the sodium-dependent glucose transport pathway of the intestinal brush-border membrane in its absorption process (Gee et al., 1998)."}}, "note": "“Also recorded” adds a separate entry of the source."}
{"smiles": "O=c1c(O[C@@H]2O[C@H](CO)[C@@H](O)[C@H](O)[C@H]2O)c(-c2ccc(O)c(O)c2)oc2cc(O)cc(O)c12", "note": "[isoquercetin, quercetin-3-O-glucoside]", "values": [{"measurement": "absorption rate and bioavailability", "setting": "[1]", "result": "excellent absorption rate and bioavailability; also recorded: absorbed better than rutin and quercetin"}, {"measurement": "absorption", "setting": "[2]", "result": "better than that of pure aglycone; also recorded: far better absorption rates in human intestinal tract than rutin or the quercetin aglycone"}]}
